Source: patent publication US10618869B2, “Oligo-benzamide compounds and their use” (The Board of Regents of the University of Texas System, priority 2010, dated 2020)
Entries after “also recorded” stand apart in the source; their conditions may differ.

system: PCa cell lines that contain AR; assay: DHT-induced proliferation of prostate cancer cells (MTT assay); format: cell-based; conditions: DHT-induced proliferation, MTT assay; structure-function series
Protocol: FIGS. 10A-E. D2 blocks proliferation of prostate cancer cells in vitro and in vivo (a) Effect of pretreatment with 100 nM of D1 and D2 on DHT-induced proliferation in multiple prostate cancer cell lines in MTT assay. Numbers are normalized to a baseline of 100, which represents the untreated rate of proliferation. (b) Effect of pretreatment with 100 nM of D1 and D2 on DHT-induced proliferation in LNCaPcells on a Cyquant assay. (c) Dose dependent curve of D2 on proliferation of LAPC4 cells. (d) Rescue of DHT induced proliferation by overexpression of PELP1 following suppression of DHT induced proliferation with 100 nM of D2. (e). Effect of direct intratumoral injections of D1 and D2 on the proliferation of prostate cancer xenografts in animal models: Following establishment of subcutaneous xenografts in animal models, daily direct intratumoral injections of D1 and D2 were performed. Bioluminesence imaging was used to track the growth of the tumors and the effect of D1 and D2 quantitated as shown in the graph.
The importance of PELP1 and AR interaction on DHT-mediated proliferation of prostate cancer cells were confirmed using rescue experiments, where D2 suppression of DHT-mediated proliferation was overcome by overexpression of PELP1 in LNCaP PCa cells.
(§1) In this experiment, cells were plated (2-10×10^3/well) in 96 well plates and subjected to androgen deprivation for 48 hours with phenol-red free RPMI and 1% charcoal stripped fetal bovine serum (CSF). Cells were then treated with either ethanol, EGF or DHT as a positive control for 48 hours. Peptidomimetics were added 2 hours prior to treatment. Cell proliferation was measured using the MTT colorimetric assay.
as §1, with “Cells” for “In this experiment, cells”, “96-well” for “96 well”, “ethanol” for “ethanol, EGF”, “hours” for “hours.”

Compound | activity on the proliferation of prostate cancer cells (FIGS. 17, 19A-N)
COC(=O)c1ccc(NC(=O)c2ccc(NC(=O)CN)c(OCC(C)C)c2)c(OCC(C)C)c1 [D2-4] | maximal activity; also recorded: good activity
CC(C)COc1cc(C(=O)Nc2ccc(C(N)=O)cc2OCC(C)C)ccc1NC(=O)CCC(=O)O [D2-12] | good activity
CC(C)COc1cc(C(=O)Nc2ccc(C(=O)N(C(C)C)C(C)C)cc2OCC(C)C)ccc1NC(=O)CN [D2-23] | good activity
CC(C)COc1cc(C(=O)Nc2ccc(C(=O)NCCCCO)cc2OCC(C)C)ccc1NC(=O)CN [D2-26] | good activity
COC(=O)c1ccc(NC(=O)c2ccc([N+](=O)[O-])c(NCC(C)C)c2)c(NCC(C)C)c1 [D2-47] | good activity
C=C(C)COc1cc(C(=O)OC)ccc1NC(=O)c1ccc([N+](=O)[O-])c(OCC(=C)C)c1 [D29] | good activity
CC(C)COc1cc(C(=O)Nc2ccc(C(N)=O)cc2OCCc2ccc3ccccc3c2)ccc1NC(=O)c1ccc([N+](=O)[O-])c(OCC(C)C)c1 [TK6-R] | good activity

molecular target: T1, human AR (Homo sapiens, UniProt P10275); assay: not given; conditions: LXXLL motif-bound AF-2 interface of human AR; PLoS Biology 2:e274, 2004; read-out: Kd of LXXLL peptide; cited from earlier work
T1 sequence (P10275 1-920): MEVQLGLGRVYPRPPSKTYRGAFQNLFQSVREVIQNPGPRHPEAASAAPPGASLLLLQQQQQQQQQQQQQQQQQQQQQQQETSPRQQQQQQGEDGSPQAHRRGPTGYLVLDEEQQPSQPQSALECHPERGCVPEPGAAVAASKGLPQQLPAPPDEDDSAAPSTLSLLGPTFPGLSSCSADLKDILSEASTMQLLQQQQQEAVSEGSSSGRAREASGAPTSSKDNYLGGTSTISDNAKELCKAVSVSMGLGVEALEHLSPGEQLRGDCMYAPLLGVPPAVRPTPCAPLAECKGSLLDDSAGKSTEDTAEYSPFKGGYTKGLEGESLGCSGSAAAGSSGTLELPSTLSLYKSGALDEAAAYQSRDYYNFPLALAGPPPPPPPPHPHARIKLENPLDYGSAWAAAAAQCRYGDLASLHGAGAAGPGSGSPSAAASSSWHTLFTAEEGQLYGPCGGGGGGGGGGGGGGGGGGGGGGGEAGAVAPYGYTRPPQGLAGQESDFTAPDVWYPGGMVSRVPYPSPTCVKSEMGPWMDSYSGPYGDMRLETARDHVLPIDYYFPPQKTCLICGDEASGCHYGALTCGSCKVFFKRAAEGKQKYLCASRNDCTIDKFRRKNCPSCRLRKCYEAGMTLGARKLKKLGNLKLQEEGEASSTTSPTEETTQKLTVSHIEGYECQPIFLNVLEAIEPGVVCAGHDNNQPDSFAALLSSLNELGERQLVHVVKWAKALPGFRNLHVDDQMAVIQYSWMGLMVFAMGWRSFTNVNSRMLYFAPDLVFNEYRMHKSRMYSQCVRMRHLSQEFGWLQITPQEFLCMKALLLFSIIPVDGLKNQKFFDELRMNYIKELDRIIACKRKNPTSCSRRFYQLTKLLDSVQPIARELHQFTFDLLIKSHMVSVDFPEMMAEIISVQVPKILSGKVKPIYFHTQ

Compound | Kd
SSRGLLWDLLTKDSR [LXXLL peptide co-crystallised with human AR AF-2] | 1800 nM
